Assay results as given in article PMC12284848, “Safe and Efficient Intracellular Release of SN38 via Lysosomal-Responsive SN38‑G Loaded Liposomes” (ACS Applied Bio Materials, 2025).
Converted amounts (≈) assume the structure as drawn.

Columns and labels:
[1] = test system: lung adenocarcinoma (CL1-5); parameters: method as in ref 1 (SI); conditions: CL1-5-inoculated mice, free prodrug; ref 1 (SI); cited from earlier work
[2] = test system: MCF-7; experiment: Cell proliferation assay (CCK-8), MCF-7; format: cell-based, human
Protocol: Cells were seeded at a density of five thousand cells per well in 96-well plates and left to incubate overnight. Triplicate samples of free SN38, free SN38-G, and SN38-G liposomes were added at various dilutions and incubated for 24 h. CCK-8 stock solution was thawed at 37 °C in a water bath, 10 μL was added to each well, and plates were placed in the incubator for up to 4 h before measuring the absorbance at 450 nm using a microplate reader. Inhibition of cell proliferation was determined as 2 ″%ofinhibitioncomparedtocontrol^″=absorbanceat450nm(sample)×100/Absorbanceat450nm(control)
Sequential Esterification, Hydrolysis, Enzymatic Digestion, and Biological Activity Assessment of SN38-G to SN38. Commercial SN38-G was esterified in methanol or ethanol using sulfuric acid (H₂SO₄) and DMSO, following the procedure detailed in the Methods section under Synthesis of amphiphilic SN38-Gmet and SN38-Geth from SN38-G. The formation of the esters was monitored by analytical HPLC. For analysis, 2 µL of the reaction mixture was diluted in 248 µL of HPLC mobile phase, and 2.5 µL was injected with the fluorescence detector set at an excitation/emission wavelength of 375/430 nm. Hydrolysis of SN38-Gmet and SN38-Geth was carried out at 70 °C in 10 mM HEPES buffer, adjusted to pH 8. Samples were taken at 0, 5, 30, and 60 minutes, diluted in HPLC mobile phase (70% methanol, 25 mM citric acid, pH 3), and incubated at 70 °C for 10 minutes before injection. To generate active SN38, SN38-G was enzymatically cleaved by beta-glucuronidase following pH adjustment to 7 with phosphate buffer. The biological activity of the resulting SN38 was evaluated in an in-vitro cytotoxicity assay using human MCF-7 breast cancer cells, in comparison to commercial SN38. Cells were seeded at 5,000 cells per well in 96-well plates and incubated overnight. Triplicate samples of either commercial SN38 or SN38 generated from SN38-G were added at various dilutions and incubated for 24 hours. Afterward, 10 µL of CCK-8 solution (pre-warmed to 37 °C) was added to each well, and the plates were returned to the incubator for up to 4 hours. Absorbance was then measured at 450 nm using a microplate reader. Cell proliferation inhibition was calculated as: % inhibition = [Abs₄₅₀(sample) / Abs₄₅₀(control)] × 100 .
Cytotoxicity Assay in Cancerous and Non -Cancerous Cell Lines. […]
For the cytotoxicity assay cells were seeded at a density of 5,000 cells per well in 96 -well plates and allowed to adhere overnight. […] Absorbance at 450 nm was measured using a microplate reader. Cell viability was calculated as a percentage of untreated control cells. […]

[3] = test system: MCF-7; experiment: Cellular regeneration of SN38 from SN38-G liposomes, MCF-7; format: cell-based, human; conditions: 100 μM inhibitor, 2 μM SN38-G liposomes
[4] = test system: MDA-MB-231; experiment: Cellular regeneration of SN38 from SN38-G liposomes, MDA-MB-231; format: cell-based; conditions: 100 μM inhibitor, 2 μM SN38-G liposomes
[5] = physchem; conditions: for solubility at 24 h: pH 6, aqueous buffer, thermodynamic from solid, water solubility; for water solubility: 24 h, pH 6
Protocol: Water solubility tests were conducted in a pH 6 buffer (Figure b) to prevent the hydrolysis of the ester bond.
(§1) We added SN38, SN38-G, SN38-G^met, and SN38-G^eth in 10 mM MES pH 6 until it reached saturation and stopped dissolving. Saturated solutions were kept under agitation at room temperature for 24 h and centrifuged at 20,000g for 30 min at 24 °C. Analytical HPLC was then used to quantify the supernatants. The partitioning between 1-octanol and water was determined in 500 μL of 10 mM MES at pH 6 and 500 μL of 1-octanol. […] We allowed equilibration between the 2 phases for 24 h at room temperature under constant shaking. After this, the tubes were centrifuged at 20,000g for 30 min at 24 °C, and samples from each phase were analyzed by analytical HPLC. Using 70% methanol mobile phase conveniently dissolves 1-octanol, ensuring precise estimation of drugs’ quantities.

[6] = physchem; conditions: for logP at 24 h: pH 6, Log P
Protocol: The log P, defined here by partitioning between 1-octanol and pH 6 buffer (Figure c), was measured to determine compound affinity for organic phases such as the lipid bilayer.
as §1

[7] = test system: MDA-MB-231; experiment: Cell proliferation assay (CCK-8), MDA-MB-231; format: cell-based
Protocol: Cells were seeded at a density of five thousand cells per well in 96-well plates and left to incubate overnight. […] Inhibition of cell proliferation was determined as 2 ''%[…]^''=absorbanceat450nm(sample)×100/Absorbanceat450nm(control)

[8] = test system: beta-glucuronidase; experiment: Enzymatic digestion of SN38-G to SN38 by beta-glucuronidase; format: biochemical; conditions: 37 °C
[9] = Drug stability: retention in liposomes on dialysis in 0.9% NaCl with 10% FBS at 37 °C; format: physicochemical; conditions: dialysis 0.9% NaCl with 10% FBS, over 15 days
Protocol: This stability is consistent with the physicochemical properties of SN38-G and its intraliposomal complexation with calcium, which limits membrane permeability.
We diluted SN38-G liposomes at 1 mg/mL of phospholipids in 2 mL of 0.9% NaCl, complemented with 10% FBS, before transferring to dialysis membrane (Visking Tubing, diameter 15.9 mm, molecular weight 12,000–14,000). We ran the dialysis at 37 °C in the dark against 2 L, to which we added 0.02% sodium azide to prevent bacterial growth, under constant stirring. Samples of 2 μL of liposomes were taken at different intervals and diluted in 248 μL of HPLC mobile phase (70% methanol, […], pH 3), lysed for 10 min at 70 °C, and injected (Volume = 2.5 μL) in the C18 reverse phase HPLC system to analyze the total remaining amount of encapsulated SN38-G.

[10] = Alkaline hydrolysis of SN38-G esters back to SN38-G (10 mM HEPES pH 8, 70 °C, HPLC); format: physicochemical; conditions: alkaline conditions (10 mM HEPES pH 8), after 1 h
Protocol: Accordingly, we formed a loadable amphiphilic SN38-G by esterification in excess alcohol at elevated temperatures using a sulfuric acid (H2SO4) catalyst. Esterification was performed in either methanol or ethanol, resulting in a methylester (SN38-G^met) and an ethylester (SN38-G^eth). Within 12 h, over 95% of SN38-G was esterified to SN38-G^met and SN38-G^eth (Figure a). Both esters are expected to have different levels of amphiphilicity due to their respective ester length, which might influence their loading behavior. We then tested the reversibility of the esterification to regenerate hydrophilic SN38-G through alkaline hydrolysis, which is a crucial step to ensure proper retention after loading. The hydrolysis rates of SN38-G^met and SN38-G^eth under alkaline conditions at 70 °C, which simulates the elevated pH compartment of liposomes during loading, were adequate. After 1 h, 96.1% (±2.6) of SN38-G^met and 95.5% (±2.1) of SN38-G^eth were hydrolyzed back to SN38-G (Figure b). The hydrolysis duration aligns with the typical incubation time between drugs and liposomes during loading. […]
Hydrolysis of SN38-G^met and SN38-G^eth was performed in 10 mM HEPES adjusted to pH 8 to simulate the alkaline internal compartment of the liposomes during drug loading. We monitored the reaction at 70 °C and took samples at 0, 5, 30, and 60 min of incubation time. […]

[11] = test system: ovarian cancer model (OVCAR-3); parameters: method as in ref 7 (SI); conditions: equitoxic dose; ref 7 (SI); cited from earlier work

For “9-aminocamptothecin glucuronide [9AC glucuronide]”, which mice cured [1] is on record?
The mice cured was “Up to 85%”.

With `CCc1c2c(nc3ccc(OC(=O)N4CCC(N5CCCCC5)CC4)cc13)-c1cc3c(c(=O)n1C2)COC(=O)[C@]3(O)CC` [CPT-11] as the compound, how does the cytotoxicity ([2]; MCF-7, 24 h, CCK-8) read?
The cytotoxicity was “low cytotoxicity”.

Which “effect on production of SN38 in cells” value [3] does the source give for `O=C(O)[C@@H](O)[C@H]1OC(=O)[C@H](O)[C@H]1O` [D-saccharic acid 1,4-lactone] here?
The value was “effectively suppressed”.

And the “effect on production of SN38 in cells” value [4]?
The value was “effectively suppressed”.

Which results are given for `CCc1c2c(nc3ccc(O)cc13)-c1cc3c(c(=O)n1C2)COC(=O)[C@]3(O)CC` [SN38, 7-ethyl-10-hydroxycamptothecin]?
solubility at 24 h [5]: ~7.45 µg/mL (≈ 0.019 mM); higher affinity for the organic phase ([6]; 1-octanol vs pH 6 buffer): 53 fold; logP at 24 h [6]: 1.73; IC50 ([2]; Homo sapiens, MCF7, MCF-7, 24 h, CCK-8): 5.82 nM; in vitro cytotoxicity of SN38 regenerated from reformed SN38-G ([2]; SN38 made by esterification, hydrolysis and beta-glucuronidase digestion of SN38-G, MCF-7, 24 h): comparable to that of a commercial SN38 standard; IC50 ([7]; Homo sapiens, MDA-MB-231, 24 h, CCK-8): 24 nM

With `CCc1c2c(nc3ccc(O[C@@H]4O[C@H](C(=O)O)[C@@H](O)[C@H](O)[C@H]4O)cc13)-c1cc3c(c(=O)n1C2)COC(=O)[C@]3(O)CC` [SN38-G, SN38 glucuronide] as the compound, how does the “cleavage by beta-glucuronidase to SN38” value [8] read?
The value was “rapidly cleaved”.

What about the water solubility [5] of the same compound?
The water solubility was 62800 µg/mL (≈ 110 mM).

And the solubility at 24 h [5]?
Its solubility at 24 h is ~59500 µg/mL (≈ 105 mM).

And the “higher affinities for the aqueous phase” value ([6]; 1-octanol vs pH 6 buffer)?
Its value is “over 775 fold”.

And the logP at 24 h [6]?
The logP at 24 h was -2.89.

What about the retention within liposomes [9] of the same compound?
The retention within liposomes was “excellent retention”.

What about the “reduction of toxicity versus SN38” value ([2]; MCF-7) of the same compound?
The value was 728.5 fold.

And the “reduction of toxicity versus SN38” value ([7]; MDA-MB-231)?
The value was 550.5 fold.

What does the source list for `CCOC(=O)[C@H]1O[C@@H](Oc2ccc3nc4c(c(CC)c3c2)Cn2c-4cc3c(c2=O)COC(=O)[C@]3(O)CC)[C@H](O)[C@@H](O)[C@@H]1O` [SN38-G^eth]?
hydrolyzed back to SN38-G [10]: 95.5%; water solubility [5]: 1500 µg/mL (≈ 2.51 mM); solubility at 24 h [5]: ~1500 µg/mL (≈ 2.51 mM); logP at 24 h [6]: 0.66; retention within liposomes [9]: rapid clearance

Which “hydrolyzed back to SN38-G” value [10] does the source give for `CCc1c2c(nc3ccc(O[C@@H]4O[C@H](C(=O)OC)[C@@H](O)[C@H](O)[C@H]4O)cc13)-c1cc3c(c(=O)n1C2)COC(=O)[C@]3(O)CC` [SN38-G^met] here?
Its value is 96.1%.

What about the water solubility [5] of the same compound?
The water solubility was 3860 µg/mL (≈ 6.63 mM).

What about the solubility at 24 h [5] of the same compound?
Its solubility at 24 h is ~3860 µg/mL (≈ 6.63 mM).

What about the logP at 24 h [6] of the same compound?
The logP at 24 h was 0.07.

And the retention within liposomes [9]?
The retention within liposomes was “rapid clearance”.

Which tumor inhibition [11] does the source give for `COc1cccc2c1C(=O)c1c(O)c3c(c(O)c1C2=O)C[C@@](O)(C(=O)CO)C[C@@H]3O[C@H]1C[C@H](N)[C@H](O)[C@H](C)O1` [doxorubicin] here?
Its tumor inhibition is 56%.
